Values quoted from earlier work as cited in US20180344676A1, “TOPICAL ANALGESIC PAIN RELIEF FORMULATIONS, MANUFACTURE AND METHODS OF USE THEREOF” (priority 2015, published 2018).

How the values were obtained:
hTRPV1 = hTRPV1 (Homo sapiens, UniProt Q8NER1)
human TRPM8 (hTRPM8) = human TRPM8 (hTRPM8) (Homo sapiens, UniProt Q7Z2W7)
hTRPV2 = target: T1, hTRPV2 (Homo sapiens, UniProt Q9Y5S1)
T1 sequence (Q9Y5S1 1-764): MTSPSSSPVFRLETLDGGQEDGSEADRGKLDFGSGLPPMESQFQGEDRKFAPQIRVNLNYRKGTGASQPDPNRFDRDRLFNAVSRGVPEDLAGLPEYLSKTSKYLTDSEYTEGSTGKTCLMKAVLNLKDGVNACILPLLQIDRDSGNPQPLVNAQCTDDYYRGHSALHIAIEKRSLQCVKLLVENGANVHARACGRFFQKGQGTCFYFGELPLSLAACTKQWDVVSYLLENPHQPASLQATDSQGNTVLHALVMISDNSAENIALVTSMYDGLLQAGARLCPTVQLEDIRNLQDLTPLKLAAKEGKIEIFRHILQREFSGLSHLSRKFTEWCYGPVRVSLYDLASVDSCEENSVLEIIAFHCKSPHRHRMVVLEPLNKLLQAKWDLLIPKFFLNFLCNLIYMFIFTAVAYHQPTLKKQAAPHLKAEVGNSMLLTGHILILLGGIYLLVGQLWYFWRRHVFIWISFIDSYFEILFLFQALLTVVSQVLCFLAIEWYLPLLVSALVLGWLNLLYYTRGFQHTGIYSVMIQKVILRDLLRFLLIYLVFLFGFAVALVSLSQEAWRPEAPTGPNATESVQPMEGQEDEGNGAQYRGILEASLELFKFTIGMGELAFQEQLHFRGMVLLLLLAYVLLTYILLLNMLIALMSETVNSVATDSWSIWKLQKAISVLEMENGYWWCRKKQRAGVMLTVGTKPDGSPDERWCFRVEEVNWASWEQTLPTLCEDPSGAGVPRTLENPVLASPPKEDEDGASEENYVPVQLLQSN

hTRPA1 = hTRPA1 (Homo sapiens, UniProt O75762); conditions: for inhibition of hTRPA1 activation by menthol and allyl isothiocyanate: compound at 1 mM, menthol 1 mM and allyl isothiocyanate 10 uM
Sequence of hTRPA1 (O75762 whole entry): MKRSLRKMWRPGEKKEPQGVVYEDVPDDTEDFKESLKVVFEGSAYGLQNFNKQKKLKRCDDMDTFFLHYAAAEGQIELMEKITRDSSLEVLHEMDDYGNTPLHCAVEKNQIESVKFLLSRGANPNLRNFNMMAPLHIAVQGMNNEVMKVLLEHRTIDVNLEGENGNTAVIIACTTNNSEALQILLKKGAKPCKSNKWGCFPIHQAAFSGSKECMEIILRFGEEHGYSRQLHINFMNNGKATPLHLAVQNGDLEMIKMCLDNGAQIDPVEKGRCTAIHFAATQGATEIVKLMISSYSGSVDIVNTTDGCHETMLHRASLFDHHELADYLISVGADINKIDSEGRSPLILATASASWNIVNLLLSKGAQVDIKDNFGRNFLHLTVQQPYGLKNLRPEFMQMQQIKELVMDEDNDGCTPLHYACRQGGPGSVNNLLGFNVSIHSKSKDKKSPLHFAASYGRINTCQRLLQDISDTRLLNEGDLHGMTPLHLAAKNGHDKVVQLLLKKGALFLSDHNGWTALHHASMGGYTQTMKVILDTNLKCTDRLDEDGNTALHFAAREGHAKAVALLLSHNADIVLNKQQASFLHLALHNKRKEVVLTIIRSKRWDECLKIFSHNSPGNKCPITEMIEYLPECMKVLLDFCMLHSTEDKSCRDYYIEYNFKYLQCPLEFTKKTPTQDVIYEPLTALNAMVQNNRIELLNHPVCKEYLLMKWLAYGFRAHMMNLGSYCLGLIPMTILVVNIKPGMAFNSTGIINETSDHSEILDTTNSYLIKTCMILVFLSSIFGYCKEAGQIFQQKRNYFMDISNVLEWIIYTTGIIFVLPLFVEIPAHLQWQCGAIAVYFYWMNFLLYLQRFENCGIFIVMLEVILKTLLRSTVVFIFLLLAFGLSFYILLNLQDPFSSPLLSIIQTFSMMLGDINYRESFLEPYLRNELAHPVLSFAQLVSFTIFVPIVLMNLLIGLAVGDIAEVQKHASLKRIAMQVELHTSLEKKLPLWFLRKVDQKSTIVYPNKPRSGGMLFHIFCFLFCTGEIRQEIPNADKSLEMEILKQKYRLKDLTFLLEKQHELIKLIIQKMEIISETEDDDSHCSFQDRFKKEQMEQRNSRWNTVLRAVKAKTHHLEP

pain and itch responses = conditions: mice

Sequence of hTRPV1 (Q8NER1 whole entry): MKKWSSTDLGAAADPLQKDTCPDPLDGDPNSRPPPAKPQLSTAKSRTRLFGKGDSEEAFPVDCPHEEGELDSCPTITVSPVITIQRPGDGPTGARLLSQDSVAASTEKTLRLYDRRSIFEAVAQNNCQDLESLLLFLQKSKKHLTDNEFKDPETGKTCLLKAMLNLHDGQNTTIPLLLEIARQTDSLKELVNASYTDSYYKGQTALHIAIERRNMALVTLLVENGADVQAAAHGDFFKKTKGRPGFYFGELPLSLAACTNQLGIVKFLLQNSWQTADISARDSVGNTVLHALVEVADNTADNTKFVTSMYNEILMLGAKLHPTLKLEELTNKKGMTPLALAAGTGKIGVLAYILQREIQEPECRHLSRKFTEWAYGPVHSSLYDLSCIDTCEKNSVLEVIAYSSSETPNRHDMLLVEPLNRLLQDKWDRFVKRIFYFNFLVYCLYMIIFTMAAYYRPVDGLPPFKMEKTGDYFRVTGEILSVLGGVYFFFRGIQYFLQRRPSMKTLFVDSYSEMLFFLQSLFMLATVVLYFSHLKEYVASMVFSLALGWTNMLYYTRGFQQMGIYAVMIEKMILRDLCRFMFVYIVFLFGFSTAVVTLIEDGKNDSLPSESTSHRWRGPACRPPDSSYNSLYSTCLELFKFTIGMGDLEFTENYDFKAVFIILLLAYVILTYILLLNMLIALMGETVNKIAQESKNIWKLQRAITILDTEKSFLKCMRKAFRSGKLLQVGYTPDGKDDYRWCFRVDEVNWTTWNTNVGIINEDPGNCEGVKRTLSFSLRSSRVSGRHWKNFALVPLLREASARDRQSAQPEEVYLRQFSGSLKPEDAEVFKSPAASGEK
Sequence of human TRPM8 (hTRPM8) (Q7Z2W7 whole entry): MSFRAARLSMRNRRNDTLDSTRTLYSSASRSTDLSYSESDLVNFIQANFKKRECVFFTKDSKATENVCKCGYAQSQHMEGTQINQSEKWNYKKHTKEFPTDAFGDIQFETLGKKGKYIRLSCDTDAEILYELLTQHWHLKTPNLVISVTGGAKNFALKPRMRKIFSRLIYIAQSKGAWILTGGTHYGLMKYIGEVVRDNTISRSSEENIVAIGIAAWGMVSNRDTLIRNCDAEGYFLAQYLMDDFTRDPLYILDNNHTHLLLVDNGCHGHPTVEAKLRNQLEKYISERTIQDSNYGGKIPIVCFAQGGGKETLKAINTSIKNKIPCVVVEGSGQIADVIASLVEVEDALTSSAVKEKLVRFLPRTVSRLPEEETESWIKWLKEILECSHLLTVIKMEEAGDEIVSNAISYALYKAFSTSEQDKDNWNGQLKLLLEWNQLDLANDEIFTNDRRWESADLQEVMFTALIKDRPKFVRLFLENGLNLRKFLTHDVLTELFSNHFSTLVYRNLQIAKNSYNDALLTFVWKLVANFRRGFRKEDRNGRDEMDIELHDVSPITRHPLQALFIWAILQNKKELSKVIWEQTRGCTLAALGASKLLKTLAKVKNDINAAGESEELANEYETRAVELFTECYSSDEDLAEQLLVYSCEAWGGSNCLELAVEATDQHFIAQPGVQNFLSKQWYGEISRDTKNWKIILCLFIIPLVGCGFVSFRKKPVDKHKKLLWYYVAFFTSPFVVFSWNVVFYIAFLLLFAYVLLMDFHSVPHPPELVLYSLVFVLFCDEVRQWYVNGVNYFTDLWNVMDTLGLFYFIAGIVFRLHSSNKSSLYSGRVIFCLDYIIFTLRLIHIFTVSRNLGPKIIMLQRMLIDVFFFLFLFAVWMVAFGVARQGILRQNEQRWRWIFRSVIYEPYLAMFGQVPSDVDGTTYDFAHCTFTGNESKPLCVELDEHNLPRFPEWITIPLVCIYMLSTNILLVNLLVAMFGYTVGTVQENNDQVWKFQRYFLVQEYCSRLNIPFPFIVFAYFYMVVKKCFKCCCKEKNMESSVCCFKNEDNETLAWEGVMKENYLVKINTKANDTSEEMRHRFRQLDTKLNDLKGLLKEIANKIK

Compound	activation of hTRPA1 (hTRPA1)	inhibition of hTRPA1 activation by menthol and allyl isothiocyanate (hTRPA1)	further results
CC12CCC(CC1)C(C)(C)O2 [1,8-cineole]			activation of hTRPV1 (hTRPV1): did no( activate; activation of human TRPM8 (human TRPM8 (hTRPM8)): activates; activation of hTRPV2 (hTRPV2): did no( activate
CC1(C)[C@@H]2CC[C@@]1(C)[C@](C)(O)C2 [2-methylosoborneol]	did not activate	completely inhibited	
CC1(C)C2CCC1(C)C(O)C2 (stereo not shown) [borneol]	did not activate	completely inhibited	
CC12CCC(CC1=O)C2(C)C (stereo not shown) [camphor]	did not activate		
CC12CCC(C1)C(C)(C)C2O (stereo not shown) [fenchyl alcohol]	did not activate	completely inhibited	
O=C1CC2CC[C@H]1C2 [norcamphor]	did not activate		
CCCCCCCC/C=C\CCCCCCCC(=O)O [oleic acid]			TRPV1 activity (TRPV1): inhibited; pain and itch responses (pain and itch responses): inhibited
